The values below are quoted from earlier work in publication PMC8398847, “Isavuconazole: Thermodynamic Evaluation of Processes Sublimation, Dissolution and Partition in Pharmaceutically Relevant Media” (Molecules, 2021).

The conditions of the data set: 298.15 K, cited from earlier work; for sublimation Gibbs energy (kJ∙mol-1, Table S2) / sublimation enthalpy (first kJ∙mol-1 column, Table S2): bicalutamide cluster; for sublimation Gibbs energy (Table S1) / sublimation enthalpy (Table S1): IVZ cluster, ref Table S1 [1]-[16].

Where “and” joins values, the source holds several entries; their conditions need not be identical. Equal values may be shown once.

“2-phenylcarbamoyl-3-methylquinoxaline-N-oxide”: the “sublimation Gibbs energy (kJ∙mol-1, Table S2)” value is 69.2 kJ/mol and the “sublimation enthalpy (first kJ∙mol-1 column, Table S2)” value was 145.1 kJ/mol.
In the case of `CC(O)(c1ccccc1)c1ccccc1` [1,1-diphenylethanol], the “sublimation Gibbs energy (Table S1)” value is 9.35 kcal/mol; the “sublimation enthalpy (Table S1)” value was 25.1 kcal/mol; the “sublimation Gibbs energy (kJ∙mol-1, Table S2)” value is 39.1 kJ/mol; the “sublimation enthalpy (first kJ∙mol-1 column, Table S2)” value was 105 kJ/mol.
On to `Fc1ccc(-n2cccc2)cc1` [1-(4-fluorophenyl)pyrrole], for which the “sublimation Gibbs energy (kJ∙mol-1, Table S2)” value was 25.4 kJ/mol and the “sublimation enthalpy (first kJ∙mol-1 column, Table S2)” value was 78.9 kJ/mol.
`CC(O)Cc1nsc(Nc2ccc(F)cc2)n1` (stereo not shown) [1-[5-(4-Fluoro-phenylamino)-[1,2,4]thiadiazol-3-yl]-propan-2-ol]: the “sublimation Gibbs energy (kJ∙mol-1, Table S2)” value is 59.1 kJ/mol and the “sublimation enthalpy (first kJ∙mol-1 column, Table S2)” value was 124.8 kJ/mol.
On to `CC(C)(O)c1ccccc1` [1-methyl-1-phenylethanol], for which the “sublimation Gibbs energy (Table S1)” value is 5.26 kcal/mol; the “sublimation enthalpy (Table S1)” value was 19.7 kcal/mol; the “sublimation Gibbs energy (kJ∙mol-1, Table S2)” value was 22 kJ/mol; the “sublimation enthalpy (first kJ∙mol-1 column, Table S2)” value was 82.3 kJ/mol.
Regarding `CC(=O)Nc1ccccc1O` [2'-Hydroxyacetanilide], the “sublimation Gibbs energy (kJ∙mol-1, Table S2)” value was 52.8 kJ/mol and the “sublimation enthalpy (first kJ∙mol-1 column, Table S2)” value was 121.8 kJ/mol.
As to `Fc1ccccc1-c1ccccc1F` [2,2'-difluorobiphenyl], the “sublimation Gibbs energy (Table S1)” value was 7.72 kcal/mol; the “sublimation enthalpy (Table S1)” value was 22.7 kcal/mol; the “sublimation Gibbs energy (kJ∙mol-1, Table S2)” value is 32.3 kJ/mol; the “sublimation enthalpy (first kJ∙mol-1 column, Table S2)” value is 95 kJ/mol.
On to `CC(=O)Nc1ccccc1C(=O)O` [2-(acetylamino)-Benzoic acid], for which the “sublimation Gibbs energy (kJ∙mol-1, Table S2)” value was 54.4 kJ/mol and the “sublimation enthalpy (first kJ∙mol-1 column, Table S2)” value is 115.5 kJ/mol.
For `NC(=O)c1ccccc1F` [2-Fluorobenzamide], the “sublimation Gibbs energy (kJ∙mol-1, Table S2)” value is 35.8 kJ/mol and the “sublimation enthalpy (first kJ∙mol-1 column, Table S2)” value is 95.4 kJ/mol.
With `N#Cc1ccc2ccccc2c1` [2-Naphthalenecarbonitrile], the “sublimation Gibbs energy (Table S1)” value was 8.08 kcal/mol and the “sublimation enthalpy (Table S1)” value is 22 kcal/mol.
As to `O=C(O)c1ccccc1F` [2-fluorobenzoic acid], the “sublimation Gibbs energy (Table S1)” value is 8.48 kcal/mol; the “sublimation enthalpy (Table S1)” value is 22.6 kcal/mol; the “sublimation Gibbs energy (kJ∙mol-1, Table S2)” value was 35.5 kJ/mol; the “sublimation enthalpy (first kJ∙mol-1 column, Table S2)” value is 94.4 kJ/mol.
`CC(=O)Nc1cccc(O)c1` [3-Acetamidophenol]: the “sublimation Gibbs energy (kJ∙mol-1, Table S2)” value is 56.4 kJ/mol and the “sublimation enthalpy (first kJ∙mol-1 column, Table S2)” value was 111 kJ/mol.
With `NC(=O)c1cccc(F)c1` [3-Fluorobenzamide], the “sublimation Gibbs energy (kJ∙mol-1, Table S2)” value was 42.5 kJ/mol and the “sublimation enthalpy (first kJ∙mol-1 column, Table S2)” value is 104.1 kJ/mol.
For `N#Cc1cccc(F)c1` [3-Fluorobenzonitrile], the “sublimation Gibbs energy (Table S1)” value is 3.78 kcal/mol and the “sublimation enthalpy (Table S1)” value was 15.6 kcal/mol.
Regarding `O=[N+]([O-])c1cccc(F)c1` [3-Fluoronitrobenzene], the “sublimation Gibbs energy (kJ∙mol-1, Table S2)” value was 17.1 kJ/mol and the “sublimation enthalpy (first kJ∙mol-1 column, Table S2)” value is 72.3 kJ/mol.
On to `O=C(O)c1cccc(F)c1` [3-fluorobenzoic acid], for which the “sublimation Gibbs energy (Table S1)” value is 8.22 kcal/mol; the “sublimation enthalpy (Table S1)” value was 22.4 kcal/mol; the “sublimation Gibbs energy (kJ∙mol-1, Table S2)” value is 34.4 kJ/mol; the “sublimation enthalpy (first kJ∙mol-1 column, Table S2)” value is 93.6 kJ/mol.
Regarding `Cc1ccccc1NC(=O)c1c(C)[n+]([O-])c2ccccc2[n+]1[O-]` [3-methyl-N-(2-methylphenyl)-2-quinoxalinecarboxamide-1,4-dioxide], the “sublimation Gibbs energy (kJ∙mol-1, Table S2)” value was 71.9 kJ/mol and the “sublimation enthalpy (first kJ∙mol-1 column, Table S2)” value is 154.8 kJ/mol.
Consider `CC(=O)Nc1ccc(Br)cc1` [4'-Bromoacetanilide], for which the “sublimation Gibbs energy (kJ∙mol-1, Table S2)” value was 51.2 kJ/mol and the “sublimation enthalpy (first kJ∙mol-1 column, Table S2)” value is 113.4 kJ/mol.
On to `CC(=O)Nc1ccc(Cl)cc1` [4'-Chloroacetanilide], for which the “sublimation Gibbs energy (kJ∙mol-1, Table S2)” value is 50.1 kJ/mol and the “sublimation enthalpy (first kJ∙mol-1 column, Table S2)” value is 113.8 kJ/mol.
As to `Fc1ccc(-c2ccc(F)cc2)cc1` [4,4'-difluorobiphenyl], the “sublimation Gibbs energy (Table S1)” value was 7.22 kcal/mol; the “sublimation enthalpy (Table S1)” value was 21.8 kcal/mol; the “sublimation Gibbs energy (kJ∙mol-1, Table S2)” value was 30.2 kJ/mol; the “sublimation enthalpy (first kJ∙mol-1 column, Table S2)” value was 91.2 kJ/mol.
As for `CNc1ccc(C(=O)O)cc1` [4-(methylamino)benzoic acid], the “sublimation Gibbs energy (kJ∙mol-1, Table S2)” value was 55.3 kJ/mol and the “sublimation enthalpy (first kJ∙mol-1 column, Table S2)” value was 123.9 kJ/mol.
Turning to `N#Cc1ccc(Br)cc1` [4-Bromobenzonitrile], the “sublimation Gibbs energy (Table S1)” value is 6.81 kcal/mol and the “sublimation enthalpy (Table S1)” value was 19.3 kcal/mol.
On to `N#Cc1ccc(C(=O)O)cc1` [4-Cyanobenzoic acid], for which the “sublimation Gibbs energy (kJ∙mol-1, Table S2)” value is 50.7 kJ/mol and the “sublimation enthalpy (first kJ∙mol-1 column, Table S2)” value is 112.8 kJ/mol.
As to `NC(=O)c1ccc(F)cc1` [4-Fluorobenzamide], the “sublimation Gibbs energy (kJ∙mol-1, Table S2)” value is 43.2 kJ/mol and the “sublimation enthalpy (first kJ∙mol-1 column, Table S2)” value was 102.8 kJ/mol.
Turning to `N#Cc1ccc(F)cc1` [4-Fluorobenzonitrile], the “sublimation Gibbs energy (Table S1)” value is 4.21 kcal/mol and the “sublimation enthalpy (Table S1)” value was 16.2 kcal/mol.
On to `O=[N+]([O-])c1ccc(F)cc1` [4-Fluoronitrobenzene], for which the “sublimation Gibbs energy (kJ∙mol-1, Table S2)” value is 18.9 kJ/mol and the “sublimation enthalpy (first kJ∙mol-1 column, Table S2)” value was 70.9 kJ/mol.
As to `Oc1ccc(F)cc1` [4-Fluorophenol], the “sublimation Gibbs energy (Table S1)” value was 4.76 kcal/mol; the “sublimation enthalpy (Table S1)” value was 17.7 kcal/mol; the “sublimation Gibbs energy (kJ∙mol-1, Table S2)” value is 19.9 kJ/mol; the “sublimation enthalpy (first kJ∙mol-1 column, Table S2)” value was 74.1 kJ/mol.
As for `N#Cc1ccc(I)cc1` [4-Iodobenzonitrile], the “sublimation Gibbs energy (Table S1)” value is 7.84 kcal/mol and the “sublimation enthalpy (Table S1)” value was 21 kcal/mol.
Consider `O=C(O)c1ccc(F)cc1` [4-fluorobenzoic acid], for which the “sublimation Gibbs energy (Table S1)” value is 8.8 kcal/mol; the “sublimation enthalpy (Table S1)” value was 22.3 kcal/mol; the “sublimation Gibbs energy (kJ∙mol-1, Table S2)” value is 36.8 kJ/mol; the “sublimation enthalpy (first kJ∙mol-1 column, Table S2)” value is 93.1 kJ/mol.
Regarding `CC(N)=O` [Acetamide], the “sublimation Gibbs energy (kJ∙mol-1, Table S2)” value was 40.5 kJ/mol and the “sublimation enthalpy (first kJ∙mol-1 column, Table S2)” value was 99.8 kJ/mol.
Regarding `CC(O)(CS(=O)(=O)c1ccc(F)cc1)C(=O)Nc1ccc(C#N)c(C(F)(F)F)c1` (stereo not shown) [Bicalutamide], the “sublimation Gibbs energy (Table S1)” value was 15.2 kcal/mol; the “sublimation enthalpy (Table S1)” value was 29.8 kcal/mol; the “sublimation Gibbs energy (kJ∙mol-1, Table S2)” value was 63.7 kJ/mol; the “sublimation enthalpy (first kJ∙mol-1 column, Table S2)” value is 124.7 kJ/mol.
Consider `O=C(O)c1cc(-c2ccc(F)cc2F)ccc1O` [Diflunisal (Form A), Diflunisal], for which the “sublimation Gibbs energy (kJ∙mol-1, Table S2)” value is 57.6 kJ/mol and the “sublimation enthalpy (first kJ∙mol-1 column, Table S2)” value was 120.1 kJ/mol.
Consider `O=C(O)c1ccccc1Nc1cccc(C(F)(F)F)c1` [Flufenamic acid], for which the “sublimation Gibbs energy (kJ∙mol-1, Table S2)” value was 54.3 kJ/mol and the “sublimation enthalpy (first kJ∙mol-1 column, Table S2)” value was 121.2 kJ/mol.
`CC(C(=O)O)c1ccc(-c2ccccc2)c(F)c1` (stereo not shown) [Flurbiprofen]: the “sublimation Gibbs energy (Table S1)” value was 12.7 kcal/mol and the “sublimation enthalpy (Table S1)” value is 26.34 kcal/mol.
Take `Cc1cccc(Nc2ccccc2C(=O)O)c1C` [Mefenamic Acid]: the “sublimation Gibbs energy (kJ∙mol-1, Table S2)” value was 59.2 kJ/mol and the “sublimation enthalpy (first kJ∙mol-1 column, Table S2)” value is 136.3 kJ/mol.
In the case of `CC(=O)Nc1ccccc1C` [N-(2-methylphenyl)acetamide], the “sublimation Gibbs energy (kJ∙mol-1, Table S2)” value is 40.9 kJ/mol and the “sublimation enthalpy (first kJ∙mol-1 column, Table S2)” value was 97.1 kJ/mol.
With `CC12CC3CC(C)(C1)CC(NS(=O)(=O)c1ccc(C(F)(F)F)cc1)(C3)C2` [N-(3,5-Dimethyl-adamantan-1-yl)-4-trifluoromethyl-benzenesulfonamide], the “sublimation Gibbs energy (kJ∙mol-1, Table S2)” value was 49.6 kJ/mol and the “sublimation enthalpy (first kJ∙mol-1 column, Table S2)” value was 107.7 kJ/mol.
With `CC(=O)Nc1ccc(C)cc1` [N-(4-methylphenyl)acetamide], the “sublimation Gibbs energy (kJ∙mol-1, Table S2)” value is 44.5 kJ/mol and the “sublimation enthalpy (first kJ∙mol-1 column, Table S2)” value is 99 kJ/mol.
`CC(=O)Nc1cccc2ccccc12` [N-acetyl-1-naphthylamine]: the “sublimation Gibbs energy (kJ∙mol-1, Table S2)” value was 47.9 kJ/mol; the “sublimation enthalpy (first kJ∙mol-1 column, Table S2)” value is 94 kJ/mol and 94.1 kJ/mol.
`c1ccc(CNc2ccccc2)cc1` [N-phenyl benzylamine]: the “sublimation Gibbs energy (kJ∙mol-1, Table S2)” value was 36.9 kJ/mol and the “sublimation enthalpy (first kJ∙mol-1 column, Table S2)” value is 104.4 kJ/mol.
As to `O=C(O)c1ccccc1Nc1ccccc1` [N-phenyl-Anthranilic acid], the “sublimation Gibbs energy (kJ∙mol-1, Table S2)” value is 58.9 kJ/mol and the “sublimation enthalpy (first kJ∙mol-1 column, Table S2)” value is 126 kJ/mol.
On to `O=C(O)c1cccnc1Nc1cccc(C(F)(F)F)c1` [Niflumic acid], for which the “sublimation Gibbs energy (kJ∙mol-1, Table S2)” value was 61.3 kJ/mol and the “sublimation enthalpy (first kJ∙mol-1 column, Table S2)” value was 130.2 kJ/mol.
With `CC(=O)Nc1ccc(O)cc1` [Paracetamol], the “sublimation Gibbs energy (kJ∙mol-1, Table S2)” value was 60 kJ/mol and the “sublimation enthalpy (first kJ∙mol-1 column, Table S2)” value was 117.9 kJ/mol.
As to `CC(=O)NCC(=O)Nc1ccccc1` [acetylglycine anilide], the “sublimation Gibbs energy (kJ∙mol-1, Table S2)” value is 59.9 kJ/mol and the “sublimation enthalpy (first kJ∙mol-1 column, Table S2)” value was 125.4 kJ/mol.
